For test [1], the system named is c-Myc (Pu22) (DNA, G4) TGAGGGTGGGTAGGGTGGGTAA
As to the kind of experiment: thiazole orange displacement (FID). Conditions: 140 mM KCl, 20 mM Na cacodylate; pH 7, RT, 10% DMSO; 0.5 μM TO displaced, 0.5 μM DNA.

The test system of test [2] is FAM-Pu22 (DNA, G4) TGAGGGTGGGTAGGGTGGGTAA
The test can be described thus: fluorescence intensity titration of labelled DNA. Conditions: 150 mM KCl; 10 mM Tris-HCl, pH 7.4, RT, 2-3% DMSO, 50 nM DNA.

The test system is the same in test [3]. As to the kind of experiment: microscale thermophoresis. The conditions noted are these: 150 mM KCl; 10 mM Tris-HCl, pH 7.4. For orientation: Microscale thermophoresis detects binding through changes in fluorescence in a small temperature gradient.
For test [4], the system named is c-Myc (Pu22) (DNA, G4) TGAGGGTGGGTAGGGTGGGTAA
The test can be described thus: 1H NMR. The conditions noted are these: 70 mM KCl, 25 mM KPi; pH 7, 298 K, 10% DMSO-d6, 0.1 mM DNA.

For test [5], the system named is dsDNA 24bp (FAM-duplex) (DNA, duplex) CGCGAATTCGCGCGCGAATTCGCG
The test can be described thus: microscale thermophoresis. Conditions: 150 mM KCl; 10 mM Tris-HCl, pH 7.4.

Test [6] relates to c-Myc (Pu22) (DNA, G4) TGAGGGTGGGTAGGGTGGGTAA
The test can be described thus: 1H NMR titration. Conditions: 70 mM KCl, 25 mM KPi; pH 7, 298 K, 10% DMSO-d6, 0.1 mM DNA.

For the compound `NCCNCCNCCNCCNCc1n[nH]c2ccccc12`, in test [1], the “DC50 FID” value was 15.63 ± 1.08 µM.
On to `CN(C)Cc1c[nH]c2ccc([N+](=O)[O-])cc12`, for which the “DC50 FID” value in test [1] was 19.11 ± 0.88 µM. Further, the “K D FAM” value in test [2] came to 15.21 ± 1.93 µM. The “K D MST” value in test [3] came out at 13.22 ± 0.80 µM.
Turning to `CN(C)Cc1c[nH]c2ccc(N)cc12`, the binding result in test [4] is given as “weak”. Also, in test [1], the “DC50 FID” value worked out at 3.83 ± 0.11 µM. The “K D FAM” value in test [2] came out at 6.29 ± 0.71 µM. Further, in test [3], the “K D MST” value came out at 2.21 ± 0.89 µM.
For `Nc1ccc2c(ccn2CCCN2CCCC2)c1`, the “DC50 FID” value in test [1] was 6.31 ± 0.43 µM. In test [5], this compound returned an equilibrium dissociation constant (Kd) of 18.0 ± 1.33 µM. Moreover, the “K D FAM” value in test [2] came to 7.12 ± 0.45 µM. For the same compound, the “K D MST” value in test [3] came out at 2.86 ± 0.33 µM.
With `O=[N+]([O-])c1ccc2[nH]cc(CNCCN3CCCC3)c2c1`, in test [4], the binding entry is reported as “yes”. For the same compound, in test [1], the “DC50 FID” value came out at 6.81 ± 0.9 µM. Further, the “K D FAM” value in test [2] worked out at 7.53 ± 0.93 µM. The “K D MST” value in test [3] was 5.52 ± 0.61 µM.
Turning to `O=[N+]([O-])c1ccc2c(c1)c(CNCCN1CCCC1)cn2CCCN1CCCC1`, the “DC50 FID” value in test [1] amounted to 3.30 ± 0.86 µM. Further, in test [5], the equilibrium dissociation constant (Kd) came to 32.3 ± 1.69 µM. For the same compound, in test [2], the “K D FAM” value was 2.81 ± 0.37 µM. Besides, the binding result in test [6] is “yes”. In addition, the “K D MST” value in test [3] is 1.30 ± 0.21 µM.
With `c1ccc2c(c1)ccn2CCCN1CCCC1`, the “DC50 FID” value in test [1] is 19.12 ± .92 µM. In test [2], the “K D FAM” value amounted to 16.87 ± 1.58 µM. In addition, the “K D MST” value in test [3] was found to be 15.11 ± 0.30 µM.
With `c1cc2c(cc1CNCCN1CCCC1)OCO2`, in test [1], the “DC50 FID” value is 16.11 ± 1.33 µM.
For the compound `O=[N+]([O-])c1ccc2c(ccn2CCCN2CCCC2)c1`, the binding result in test [4] is reported as “yes”. The “DC50 FID” value in test [1] was found to be 5.01 ± 0.15 µM. This compound also registered a Kd in test [5] of 38.1 ± 2.39 µM. Moreover, the “K D FAM” value in test [2] is 2.43 ± 0.29 µM. In addition, the “K D MST” value in test [3] stood at 1.49 ± 0.12 µM.
For `Cn1ccc2cc(N)ccc21`, the binding result in test [4] is listed as “weak”. For the same compound, in test [1], the “DC50 FID” value is 3.71 ± 0.32 µM. Also, the “K D FAM” value in test [2] is 6.30 ± 0.63 µM. For the same compound, in test [3], the “K D MST” value was 2.32 ± 0.41 µM.
Regarding `Cc1cc2cc(N)ccc2n1C`, the “DC50 FID” value in test [1] was determined as 14.53 ± 0.61 µM. Further, the “K D FAM” value in test [2] was determined as 12.32 ± 0.94 µM. Besides, the “K D MST” value in test [3] came out at 17.18 ± 0.54 µM.
`NCCNCCNCCNCCNCc1c[nH]c2ncccc12`: in test [1], the “DC50 FID” value stood at 16.63 ± 1.93 µM.
For the compound `NCCNCCNCCNCCNCc1ccc2c(c1)OCO2`, the “DC50 FID” value in test [1] was determined as 18.11 ± 1.69 µM.

One may read the Kd as the equilibrium constant for the complex coming apart.

The values above are taken from paper PMC8252724 (2021).
